# pKd: −log10 of the molar value. Where “and” joins values, the source holds several entries; their conditions need not be identical. Equal entries are not always repeated.
# Columns and labels:
# [1] = molecular target: T1, pure recombinant glycosylated IR (Homo sapiens, UniProt P06213); assay: Surface plasmon resonance binding to IR; settings: SPR, IR bound to NTA chip; read-out: apparent binding affinity (Kd) to IR
# T1 construct: purchased R&D Systems, Inc
# Experimental: (§1) (A) α-PGG binds to IR as measured by a SPR (28). Increasing concentrations of α-PGG was injected into the system to interact with the pure IR attached to the gold surface of the biosensor chip. The binding, represented in arbitrary response units, was automatically plotted against α-PGG concentrations to generate the binding curve. (B) Insulin binding to IR in the absence or presence of α-PGG. Increasing amounts of ^125I-labeled insulin were added to WGA-coated wells containing pre-bound IR isolated from CHO-IR cells in the absence of α-PGG or in the presence of 30 μM or 50 μM of α-PGG. After overnight incubation, removal of excessive ligands, and washing, the bound radioactive insulin was measured. (C) Insulin displacement by α-PGG. Fixed amounts of radioactive insulin (1 nM) were added to each of the WGA-coated wells pre-bound with IR. Increasing amounts of α-PGG were added to the wells to displace the ^125I-labeled insulin. […]
# Insulin receptor binding studies. […] After sensograms of α-PGG-IR binding at different concentrations were recorded, the binding affinity was analyzed using BIAevaluation software. […] The bound ligand was detached (eluted) from the receptor with 2×200 μL 0.2M Glycine pH 2.8, and measured for its radioactivity using a Beckman Coulter LS 6400 Multi-Purpose Scintillation Counter. […] The receptor binding results were analyzed with the software GraphPad Prism.
# α-subunit of IR = molecular target: T2, α-subunit of IR (Mus musculus, UniProt P15208); assay: Cross-linking with Sulfo-SANPAH and Western blot with anti-IR α-subunit antibody; assay type: cell-based; settings: adipocytes, 200 μM, Sulfo-SANPAH, UV
# T2 construct: endogenous in cells; host or cells: 3T3-L1 adipocytes (ATCC)
# Experimental: as §1
# For the cross-linking reaction, sulfosuccinimidyl-6-(4′-azido-2′-nitrophenylamino) hexanoate (Sulfo-SANPAH), a photoactive, non-cleavable cross-linker (31, 32) purchased from Pierce was used to cross link β-PGG to plasma membrane proteins that it interacts with. […] Cells were lysed and the total cell protein was isolated and separated on an 8% reducing SDS-PAGE, transferred to a nylon membrane, and analyzed with an anti-IR α-subunit antibody.
# ob/ob mice = assay: Blood glucose in ob/ob mice, ip injection; assay type: in vivo; settings: ip 20 mg/kg on day 0 and day 4, P<0.001
# Experimental: Either 6-8 week old male db/db mice or 8-12 week old male ob/ob mice were treated with aqueous solutions of α-PGG by either oral delivery (˜10 μL, A & B) or ip injection (˜50 μL, C, & D). (n=8-10, mean±SD, one-way ANOVA). α-PGG (●); vehicle (∘). α-PGG (20 mg/kg) was orally delivered without glucose to fasting db/db mice (A *, P<0.02; **, P<0.01; ***, P<0.001) or with glucose (0.4 g/kg body weight) to fasting ob/ob mice (B, glucose tolerance test). α-PGG (20 mg/kg) was ip injected into ob/ob mice on day 0 and day 4 (C). A single ip injection (20 mg/kg) of α-PGG was administered to ob/ob mice (D). Glucose (A, B, C) or insulin (D) was determined from sera or plasma isolated from tail vein blood. Animal studies. Genetically diabetic db/db mice or obese ob/ob mice were purchased from Jackson Lab. Male mice of 2-3 months of age were used. Unless otherwise stated, 10 mice (N=10) were used per group. α-PGG was either orally administered or intraperitoneally (ip) injected in the form of an aqueous solution at 20 mg/kg body weight with a 1-cc sterile plastic syringe. At different times after the α-PGG administration, blood or plasma was collected from the tail vein for measurement of glucose and insulin concentrations using commercial kits. Vehicle (aqueous solution) treated mice were used as controls and were statistically compared with the α-PGG treated mice. […]
# T1 sequence (P06213 28-746 isoform P06213-2 limits assumed): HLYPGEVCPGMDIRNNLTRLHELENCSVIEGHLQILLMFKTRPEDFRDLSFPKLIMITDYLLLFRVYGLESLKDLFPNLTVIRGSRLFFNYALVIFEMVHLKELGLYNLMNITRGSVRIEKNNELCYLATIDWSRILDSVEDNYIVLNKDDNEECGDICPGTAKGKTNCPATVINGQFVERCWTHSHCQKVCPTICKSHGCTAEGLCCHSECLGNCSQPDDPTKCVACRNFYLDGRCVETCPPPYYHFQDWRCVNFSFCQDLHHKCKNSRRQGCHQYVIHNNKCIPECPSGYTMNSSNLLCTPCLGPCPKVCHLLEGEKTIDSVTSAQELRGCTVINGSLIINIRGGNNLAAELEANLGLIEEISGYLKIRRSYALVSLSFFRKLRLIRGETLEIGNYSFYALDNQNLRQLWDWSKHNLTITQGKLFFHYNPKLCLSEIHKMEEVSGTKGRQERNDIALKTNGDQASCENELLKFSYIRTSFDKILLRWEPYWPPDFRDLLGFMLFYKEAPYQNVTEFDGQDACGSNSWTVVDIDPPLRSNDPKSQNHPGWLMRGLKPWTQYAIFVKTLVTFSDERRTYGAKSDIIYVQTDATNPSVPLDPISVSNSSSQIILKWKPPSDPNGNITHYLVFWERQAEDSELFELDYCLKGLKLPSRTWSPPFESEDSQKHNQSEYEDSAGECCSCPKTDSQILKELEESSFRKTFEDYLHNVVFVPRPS
# T1 sequence (P06213 763-956 limits assumed): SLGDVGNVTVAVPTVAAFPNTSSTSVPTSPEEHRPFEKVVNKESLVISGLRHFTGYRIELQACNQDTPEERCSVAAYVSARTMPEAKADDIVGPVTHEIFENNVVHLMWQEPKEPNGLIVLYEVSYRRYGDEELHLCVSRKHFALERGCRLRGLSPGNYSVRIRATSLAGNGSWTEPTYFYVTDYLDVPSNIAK
# T2 sequence (P15208 28-748 limits assumed): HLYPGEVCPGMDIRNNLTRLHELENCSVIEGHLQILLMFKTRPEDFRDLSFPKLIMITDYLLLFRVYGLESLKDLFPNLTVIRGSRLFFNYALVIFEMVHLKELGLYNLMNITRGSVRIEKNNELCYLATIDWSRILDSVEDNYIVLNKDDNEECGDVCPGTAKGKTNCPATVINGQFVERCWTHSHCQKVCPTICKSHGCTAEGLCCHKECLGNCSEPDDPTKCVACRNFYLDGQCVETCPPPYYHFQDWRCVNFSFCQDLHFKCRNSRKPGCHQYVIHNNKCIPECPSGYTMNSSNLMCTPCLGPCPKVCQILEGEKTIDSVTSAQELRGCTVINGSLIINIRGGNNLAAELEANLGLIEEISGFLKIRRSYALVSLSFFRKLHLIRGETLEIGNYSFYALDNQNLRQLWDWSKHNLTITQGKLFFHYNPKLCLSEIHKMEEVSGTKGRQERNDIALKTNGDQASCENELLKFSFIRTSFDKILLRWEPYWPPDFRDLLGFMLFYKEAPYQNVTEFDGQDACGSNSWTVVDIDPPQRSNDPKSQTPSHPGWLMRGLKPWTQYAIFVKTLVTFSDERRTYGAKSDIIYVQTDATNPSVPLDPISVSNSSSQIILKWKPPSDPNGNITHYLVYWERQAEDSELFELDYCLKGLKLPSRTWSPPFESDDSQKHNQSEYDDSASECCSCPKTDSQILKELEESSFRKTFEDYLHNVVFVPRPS
# T2 sequence (P15208 753-1372 partner limits assumed): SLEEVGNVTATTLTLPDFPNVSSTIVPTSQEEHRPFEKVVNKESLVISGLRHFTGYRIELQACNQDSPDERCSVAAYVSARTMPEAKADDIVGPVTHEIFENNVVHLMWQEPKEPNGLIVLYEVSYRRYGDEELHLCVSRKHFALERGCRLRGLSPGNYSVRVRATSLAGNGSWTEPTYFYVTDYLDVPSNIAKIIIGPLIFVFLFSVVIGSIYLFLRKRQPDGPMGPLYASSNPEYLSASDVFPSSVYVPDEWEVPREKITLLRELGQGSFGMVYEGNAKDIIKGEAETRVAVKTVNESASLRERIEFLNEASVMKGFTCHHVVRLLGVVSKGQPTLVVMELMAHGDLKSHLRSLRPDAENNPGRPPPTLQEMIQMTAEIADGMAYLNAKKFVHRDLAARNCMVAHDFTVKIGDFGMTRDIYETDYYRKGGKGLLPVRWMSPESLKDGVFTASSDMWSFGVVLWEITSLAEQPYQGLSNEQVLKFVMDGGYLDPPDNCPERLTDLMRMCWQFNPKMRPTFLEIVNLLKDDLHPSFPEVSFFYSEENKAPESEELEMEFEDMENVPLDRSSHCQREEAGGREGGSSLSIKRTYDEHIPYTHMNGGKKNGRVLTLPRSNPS
smiles,measurement,setting,value
"O=C(OC[C@H]1O[C@H](OC(=O)c2cc(O)c(O)c(O)c2)[C@H](OC(=O)c2cc(O)c(O)c(O)c2)[C@@H](OC(=O)c2cc(O)c(O)c(O)c2)[C@@H]1OC(=O)c1cc(O)c(O)c(O)c1)c1cc(O)c(O)c(O)c1 [α-PGG, alpha 1,2,3,4,6-penta-O-galloyl-D-Glucopyranose]",pKd,[1],4.37 and ~4.37
same,gel migration of IR α-subunit after cross-linking,α-subunit of IR,Gel retardation of α-subunit of IR
same,blood glucose levels,ob/ob mice,significantly and consistently lowered

# — patent US7888042B2, “Methods for identifying insulin mimetics” (Ohio University, priority 2005, dated 2011)
